We go through 25 compounds from US10101655B2, “Compound, polymer, photosensitive resin composition, and color filter” (SAMSUNG SDI CO., LTD., priority 2016, dated 2018).

Bounds are passed on as bounds.

The series in a line: Evaluation 1: Solubility Measurement (dissolution state in dilution solvents). It counts as physicochemical. To be noted: stirred at 25° C. and 100 rpm for one hour; for Amount of dissolved compound (wt %), CH2Cl2: solvent CH2Cl2 added to 0.5 g of compound; for Amount of dissolved compound (wt %), MeOH: solvent MeOH added to 0.5 g of compound; for Amount of dissolved compound (wt %), Cyclohexanone: solvent cyclohexanone added to 0.5 g of compound. As for the experimental part:
Evaluation 1: Solubility Measurement
Dilution solvents (MeOH, CH2Cl2, cyclohexanone) were respectively added to 0.5 g of the compounds represented by Chemical Formula 6-1 to Chemical Formula 17-2 and the compound represented by Chemical Formula X-1, and each solution was stirred with Mixrotar VMR-5 (Iuchi Seieido Co., Ltd.) at 25° C. and 100 rpm for one hour.

In the case of `C=C(C)C(=O)OCCNC(=O)OCCN(CC)c1ccc2c(-c3ccccc3S(=O)(=O)[O-])c3ccc(=[N+](CC)CC)cc-3oc2c1` [Chemical Formula 6-1], the “Amount of dissolved compound (wt %), CH2Cl2” value (“Amount … (wt %), CH2Cl2” for short) is on record as >10% wt %; the “Amount of dissolved compound (wt %), MeOH” value (from here on “Amount … (wt %), MeOH”) is on record as >10% wt %; the “Amount of dissolved compound (wt %), Cyclohexanone” value (“Amount … (wt %), Cyclohexanone” below) is listed as >3% wt %.
For `C=C(C)C(=O)OCCNC(=O)OCCN(CC)c1ccc2c(-c3ccccc3S(=O)(=O)[N-]S(=O)(=O)C(F)(F)F)c3ccc(=[N+](CC)CC)cc-3oc2c1` [Chemical Formula 6-2], the “Amount … (wt %), CH2Cl2” value was >10% wt %; the “Amount … (wt %), MeOH” value is recorded as >10% wt %; the “Amount … (wt %), Cyclohexanone” value is given as >3% wt %.
Turning to `C=C(C)C(=O)OCCNC(=O)OCCN(CCCC)c1ccc2c(-c3ccccc3S(=O)(=O)[O-])c3cc/c(=[N+](\CC)CCCC)cc-3oc2c1` [Chemical Formula 7-1], the “Amount … (wt %), CH2Cl2” value is recorded as >10% wt %; the “Amount … (wt %), MeOH” value is given as >10% wt %; the “Amount … (wt %), Cyclohexanone” value was >3% wt %.
Take `C=C(C)C(=O)OCCNC(=O)OCCN(CCCC)c1ccc2c(-c3ccccc3S(=O)(=O)[N-]S(=O)(=O)C(F)(F)F)c3cc/c(=[N+](\CC)CCCC)cc-3oc2c1` [Chemical Formula 7-2]: the “Amount … (wt %), CH2Cl2” value is recorded as >10% wt %; the “Amount … (wt %), MeOH” value is given as >10% wt %; the “Amount … (wt %), Cyclohexanone” value is on record as >3% wt %.
Regarding `C=C(C)C(=O)OCCNC(=O)OCCN(CC)c1ccc2c(-c3ccccc3S(=O)(=O)[O-])c3cc/c(=[N+](\CC)c4ccccc4)cc-3oc2c1` [Chemical Formula 8-1], the “Amount … (wt %), CH2Cl2” value is >10% wt %; the “Amount … (wt %), MeOH” value is reported as >10% wt %; the “Amount … (wt %), Cyclohexanone” value was >3% wt %.
Turning to `C=C(C)C(=O)OCCNC(=O)OCCN(CC)c1ccc2c(-c3ccccc3S(=O)(=O)[N-]S(=O)(=O)C(F)(F)F)c3cc/c(=[N+](\CC)c4ccccc4)cc-3oc2c1` [Chemical Formula 8-2], the “Amount … (wt %), CH2Cl2” value is >10% wt %; the “Amount … (wt %), MeOH” value is recorded as >10% wt %; the “Amount … (wt %), Cyclohexanone” value is reported as >3% wt %.
For the compound `CCN(CCOC(=O)Nc1ccccc1)c1ccc2c(-c3ccccc3S(=O)(=O)[O-])c3ccc(=[N+](CC)CC)cc-3oc2c1` [Chemical Formula 9-1], the “Amount … (wt %), CH2Cl2” value is >10% wt %; the “Amount … (wt %), MeOH” value is >10% wt %; the “Amount … (wt %), Cyclohexanone” value is given as >1% wt %.
As for `CCN(CCOC(=O)Nc1ccccc1)c1ccc2c(-c3ccccc3S(=O)(=O)[N-]S(=O)(=O)C(F)(F)F)c3ccc(=[N+](CC)CC)cc-3oc2c1` [Chemical Formula 9-2], the “Amount … (wt %), CH2Cl2” value is given as >10% wt %; the “Amount … (wt %), MeOH” value was >10% wt %; the “Amount … (wt %), Cyclohexanone” value is recorded as >1% wt %.
In the case of `C=C(C)C(=O)OCCNC(=O)OCCN(CC)c1ccc2c(-c3ccccc3S(=O)(=O)[O-])c3cc/c(=[N+](/CC)CCOC(=O)NCCOC(=O)C(=C)C)cc-3oc2c1` [Chemical Formula 10-1], the “Amount … (wt %), CH2Cl2” value is given as >10% wt %; the “Amount … (wt %), MeOH” value is >10% wt %; the “Amount … (wt %), Cyclohexanone” value is on record as >5% wt %.
On to `C=C(C)C(=O)OCCNC(=O)OCCN(CC)c1ccc2c(-c3ccccc3S(=O)(=O)[N-]S(=O)(=O)C(F)(F)F)c3cc/c(=[N+](/CC)CCOC(=O)NCCOC(=O)C(=C)C)cc-3oc2c1` [Chemical Formula 10-2], for which the “Amount … (wt %), CH2Cl2” value is >10% wt %; the “Amount … (wt %), MeOH” value is on record as >10% wt %; the “Amount … (wt %), Cyclohexanone” value is >5% wt %.
Consider `C=C(C)C(=O)OCCNC(=O)OCCN(CCCC)c1ccc2c(-c3ccccc3S(=O)(=O)[O-])c3cc/c(=[N+](/CCCC)CCOC(=O)NCCOC(=O)C(=C)C)cc-3oc2c1` [Chemical Formula 11-1], for which the “Amount … (wt %), CH2Cl2” value was >10% wt %; the “Amount … (wt %), MeOH” value is >10% wt %; the “Amount … (wt %), Cyclohexanone” value is recorded as >5% wt %.
On to `C=C(C)C(=O)OCCNC(=O)OCCN(CCCC)c1ccc2c(-c3ccccc3S(=O)(=O)[N-]S(=O)(=O)C(F)(F)F)c3cc/c(=[N+](/CCCC)CCOC(=O)NCCOC(=O)C(=C)C)cc-3oc2c1` [Chemical Formula 11-2], for which the “Amount … (wt %), CH2Cl2” value is recorded as >10% wt %; the “Amount … (wt %), MeOH” value is given as >10% wt %; the “Amount … (wt %), Cyclohexanone” value was >5% wt %.
Regarding `C=C(C)C(=O)OCCNC(=O)OCCN(CC)c1ccc2c(-c3ccccc3S(=O)(=O)[O-])c3cc/c(=[N+](\CCOC(=O)NCCOC(=O)C(=C)C)c4ccccc4)cc-3oc2c1` [Chemical Formula 12-1], the “Amount … (wt %), CH2Cl2” value is >10% wt %; the “Amount … (wt %), MeOH” value is >10% wt %; the “Amount … (wt %), Cyclohexanone” value is reported as >5% wt %.
On to `C=C(C)C(=O)OCCNC(=O)OCCN(CC)c1ccc2c(-c3ccccc3S(=O)(=O)[N-]S(=O)(=O)C(F)(F)F)c3cc/c(=[N+](\CCOC(=O)NCCOC(=O)C(=C)C)c4ccccc4)cc-3oc2c1` [Chemical Formula 12-2], for which the “Amount … (wt %), CH2Cl2” value is >10% wt %; the “Amount … (wt %), MeOH” value is >10% wt %; the “Amount … (wt %), Cyclohexanone” value is on record as >5% wt %.
Take `CCN(CCOC(=O)Nc1ccccc1)c1ccc2c(-c3ccccc3S(=O)(=O)[O-])c3cc/c(=[N+](/CC)CCOC(=O)Nc4ccccc4)cc-3oc2c1` [Chemical Formula 13-1]: the “Amount … (wt %), CH2Cl2” value was >10% wt %; the “Amount … (wt %), MeOH” value was >10% wt %; the “Amount … (wt %), Cyclohexanone” value was >3% wt %.
As for `CCN(CCOC(=O)Nc1ccccc1)c1ccc2c(-c3ccccc3S(=O)(=O)[N-]S(=O)(=O)C(F)(F)F)c3cc/c(=[N+](/CC)CCOC(=O)Nc4ccccc4)cc-3oc2c1` [Chemical Formula 13-2], the “Amount … (wt %), CH2Cl2” value is recorded as >10% wt %; the “Amount … (wt %), MeOH” value is recorded as >10% wt %; the “Amount … (wt %), Cyclohexanone” value is recorded as >3% wt %.
For `C=CC(=O)OCCNC(=O)OCCN(CC)c1ccc2c(-c3ccccc3S(=O)(=O)[O-])c3cc/c(=[N+](/CC)CCOC(=O)NCCOC(=O)C=C)cc-3oc2c1` [Chemical Formula 14-1], the “Amount … (wt %), CH2Cl2” value was >10% wt %; the “Amount … (wt %), MeOH” value is reported as >10% wt %; the “Amount … (wt %), Cyclohexanone” value is on record as >5% wt %.
As for `C=CC(=O)OCCNC(=O)OCCN(CC)c1ccc2c(-c3ccccc3S(=O)(=O)[N-]S(=O)(=O)C(F)(F)F)c3cc/c(=[N+](/CC)CCOC(=O)NCCOC(=O)C=C)cc-3oc2c1` [Chemical Formula 14-2], the “Amount … (wt %), CH2Cl2” value was >10% wt %; the “Amount … (wt %), MeOH” value is listed as >10% wt %; the “Amount … (wt %), Cyclohexanone” value is >5% wt %.
Take `C=C(C)c1cccc(C(C)(C)NC(=O)OCCN(CC)c2ccc3c(-c4ccccc4S(=O)(=O)[O-])c4cc/c(=[N+](/CC)CCOC(=O)NC(C)(C)c5cccc(C(=C)C)c5)cc-4oc3c2)c1` [Chemical Formula 15-1]: the “Amount … (wt %), CH2Cl2” value was >10% wt %; the “Amount … (wt %), MeOH” value was >10% wt %; the “Amount … (wt %), Cyclohexanone” value was >5% wt %.
With `C=C(C)c1cccc(C(C)(C)NC(=O)OCCN(CC)c2ccc3c(-c4ccccc4S(=O)(=O)[N-]S(=O)(=O)C(F)(F)F)c4cc/c(=[N+](/CC)CCOC(=O)NC(C)(C)c5cccc(C(=C)C)c5)cc-4oc3c2)c1` [Chemical Formula 15-2], the “Amount … (wt %), CH2Cl2” value was >10% wt %; the “Amount … (wt %), MeOH” value was >10% wt %; the “Amount … (wt %), Cyclohexanone” value is >5% wt %.
Consider `CCN(CCOC(=O)NC1CCCCC1)c1ccc2c(-c3ccccc3S(=O)(=O)[O-])c3ccc(=[N+](CC)CC)cc-3oc2c1` [Chemical Formula 16-1], for which the “Amount … (wt %), CH2Cl2” value is given as >10% wt %; the “Amount … (wt %), MeOH” value is given as >10% wt %; the “Amount … (wt %), Cyclohexanone” value was >1% wt %.
Turning to `CCN(CCOC(=O)NC1CCCCC1)c1ccc2c(-c3ccccc3S(=O)(=O)[N-]S(=O)(=O)C(F)(F)F)c3ccc(=[N+](CC)CC)cc-3oc2c1` [Chemical Formula 16-2], the “Amount … (wt %), CH2Cl2” value is >10% wt %; the “Amount … (wt %), MeOH” value is >10% wt %; the “Amount … (wt %), Cyclohexanone” value is listed as >1% wt %.
On to `CCN(CCOC(=O)NC1CCCCC1)c1ccc2c(-c3ccccc3S(=O)(=O)[O-])c3cc/c(=[N+](/CC)CCOC(=O)NC4CCCCC4)cc-3oc2c1` [Chemical Formula 17-1], for which the “Amount … (wt %), CH2Cl2” value is given as >10% wt %; the “Amount … (wt %), MeOH” value was >10% wt %; the “Amount … (wt %), Cyclohexanone” value is >3% wt %.
For the compound `CCN(CCOC(=O)NC1CCCCC1)c1ccc2c(-c3ccccc3S(=O)(=O)[N-]S(=O)(=O)C(F)(F)F)c3cc/c(=[N+](/CC)CCOC(=O)NC4CCCCC4)cc-3oc2c1` [Chemical Formula 17-2], the “Amount … (wt %), CH2Cl2” value is reported as >10% wt %; the “Amount … (wt %), MeOH” value is on record as >10% wt %; the “Amount … (wt %), Cyclohexanone” value is listed as >3% wt %.
Turning to `CCN(CC)c1ccc2c(-c3ccccc3S(=O)(=O)O)c3ccc(=[N+](CC)CC)cc-3oc2c1` [Chemical Formula X-1, reference compound], the “Amount … (wt %), CH2Cl2” value was <1% wt %; the “Amount … (wt %), MeOH” value is listed as >10% wt %; the “Amount … (wt %), Cyclohexanone” value is given as <1% wt %.
